Consider 2 compounds from PubChem BioAssay (NCI).

The test system of one assay is SN12K1 renal. Kind of assay: NCI tumour cell line growth inhibition, 48 h.
The next assay has as its system P388 leukemia. The assay is described as follows: NCI tumour cell line growth inhibition, 48 h.

Values joined by “and” are separate entries in the source; they are usually repeats but may differ in a detail not shown here. Identical values can stand only once.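 A five-concentration, 48-hour dose response in 96-well plates underlies each endpoint, interpolated linearly between surrounding concentrations. At the GI50, growth is halved. The concentration for full growth arrest is given as TGI.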 Bounds are passed on as bounds.

For `O=NN(CCCl)C(=O)NC1CCC(CC2CCC(NC(=O)N(CCCl)N=O)CC2)CC1` (stereo not given), in the assay on SN12K1 renal, the TGI came to 34200 nM.
In the case of `CNCCN=c1ccc2c3c1c(O)c1c(O)ccc(=O)c1c3[nH]n2CCNCCO`, the GI50 in the assay on SN12K1 renal is 50 nM; with P388 leukemia it was < 17.2 nM and 84.5 nM. Further, the TGI was 2540 nM and 598 nM in the assay with SN12K1 renal; 44.8 nM and 246 nM in the assay on P388 leukemia.
